Consider 88 compounds from a melting point compilation (Tetko et al.; mined from patent text by program, amines drawn as free bases though some values may be those of a salt).

In general, melting point refers to the temperature, or range, at which the solid turns liquid.

The compound `COc1cc(OC)nc(C2(OC)OC(=O)c3c(Cl)cccc32)n1` (stereo not drawn) returned a melting point of 180 to 183 °C.

Turning to `COC(=O)c1ccc(CNC(=O)C[C@H]2O[C@H](c3cccc(OC)c3OC)c3cc(Cl)ccc3N(CC(C)(C)CO)C2=O)cc1`, the melting point is 110 to 112 °C.

For the compound `CCOC(=O)c1ccccc1N(CC(=O)N(C)c1ccccc1)C(=O)C(F)(F)F`, the melting point turned out to be 95 °C.

`CCCCCS(=O)(=O)NC(=O)CCc1ccc(OCCCOCCOC)cc1Oc1ncc(C(F)(F)F)cc1Cl` registered a melting point of 95 to 95.8 °C.

As for `N=C(N)c1ccc2cc(OC(=O)C3CCC3)ccc2c1`, the melting point lay in the range of 225 to 230 °C.

`COc1ccccc1CC(O)(Cc1cccs1)C(C)(C)C` (stereo not drawn) returned a melting point of 74 to 75 °C.

Compound `COC(=O)Cc1cccc(OC)c1OCCCc1cn(-c2ccc([N+](=O)[O-])cn2)nc1C(C)C` displayed a melting point of 108 to 109 °C.

Compound `O=C(CCc1ccccc1)Nc1c(Cl)ccc2nc(N3CCNCC3)ccc12` showed a melting point of 231 to 234 °C.

Regarding `CC(C)c1cc(C(C)C)c(CC(=O)c2ccc(-c3ccccc3)c(OS(N)(=O)=O)c2-c2ccccc2)c(C(C)C)c1`, the melting point is 129 to 132 °C.

Consider `Cc1cc(C2=Nn3cc(C(F)(F)F)nc3SC2c2ccc(F)cc2)cc2c1OCC(=O)N2` (stereo not drawn), for which the melting point is 136 to 138 °C.

Take `COc1ccc(S(=O)(=O)c2ccnc(C)c2C)cc1`: the melting point was in the range of 84 to 85 °C.

In turn, `O=c1nc(-c2ccc(-c3ccccc3)cc2)sc2ccccc12` gave a melting point of 170 to 171 °C.

With `CCOC(=O)c1sc(S(C)(=O)=O)c2c1CCc1cnn(C)c1-2`, the melting point is 140 to 141 °C.

On to `CN1CCC(N2C(=O)c3ccccc3Oc3ccccc32)CC1`, for which the melting point lay within 173 to 174 °C.

Turning to `NCc1cc(-c2ccccc2)no1`, the melting point was 50 °C.

As to `O=C1OC2(CCC2)C(O)=C1c1ccccc1`, the melting point was in the range of 188 to 189 °C.

As to `OCCC(c1ccccc1)C(O)(c1ccccc1)c1ccccc1` (stereo not drawn), the melting point lay in the range of 112 to 113 °C.

Consider `CCCOc1ccc(C(=O)N/C(=C\c2ccc(OC(F)(F)F)cc2)C(=O)NCCO)cc1`, for which the melting point fell in the range of 185 to 186 °C.

Regarding `O=[N+]([O-])c1cc(C2OCCCO2)ccc1O`, the melting point was 70 to 71 °C.

`NC1=C(C(=O)c2cccs2)C2=C(CCC2)S1=O` (stereo not drawn) showed a melting point of 133 to 134 °C.

`C[C@H](NC(=O)OCc1ccccc1)C(=O)N[C@@H](Cc1ccccc1)C(=O)OCc1ccccc1` came in with a melting point of 118 to 119 °C.

For `C#CC1(O)CCC2C3CCC4CC=CCC4C3CCC21C` (stereo not drawn), the melting point was 108 to 109 °C.

The compound `Cc1cc(C)c(/C=C/C2OCC(C)(C)CO2)c(Br)c1` came in with a melting point of 54 to 56 °C.

Compound `Cc1cc2c(cc1-n1c(C)ccc1C)OC(=O)C2C` (stereo not drawn) came in with a melting point of 94 to 95 °C.

`CCCc1nnc2c(=O)n(C)c3ccc(Cl)cc3n12` showed a melting point of 265 to 266 °C.

`O=C1CC2(c3ccccc3)CCCC=C2C(=O)N1` (stereo not drawn): the melting point fell in the range of 241 to 243 °C.

`Oc1cc2c(cc1CCCCSc1cccnc1)OCC2` came in with a melting point of 130 to 131 °C.

For `O=C1CCC(c2ccccc2)(c2ccccc2)[C@@H]2CN(C(=O)Cc3ccccc3C(F)(F)F)C[C@H]12` (racemic), the melting point was 207 °C.

`c1ccc(COc2ccc3ccc(OCc4ccccc4)cc3c2)cc1` showed a melting point of 161 °C.

`O=C(Nc1c[nH]nc1C(=O)NCCc1ccccc1)c1ccccn1` registered a melting point of 214 to 215 °C.

Turning to `O=C(O)C(C1CC(=O)N(C(=O)OCC(Cl)(Cl)Cl)O1)N1C(=O)c2ccccc2C1=O` (stereo not drawn), the melting point was in the range of 208 to 210 °C.

`CCCCCCCCCCCCCCCCS(=O)(=O)OC1CN(C2CCC3(C)C(CCC4C3CCC3(C)C(C(C)CCCC(C)C)CCC43)C2)C1` (stereo not drawn) displayed a melting point of 64.5 to 68 °C.

As for `Cc1cc(Cl)c(Cl)cc1C(=O)O`, the melting point lay in the range of 176 to 178 °C.

As for `NC(=O)OCC1COC(C(F)(F)Cl)(C(F)(F)Cl)O1` (stereo not drawn), the melting point is 56 to 57 °C.

In turn, `CN1CCN(c2cccc3c2C[C@H](NC(=O)c2ccc(N4CCOCC4)cc2)CO3)CC1` registered a melting point of 210 to 212 °C.

`CC(C)(C)OC(=O)N1CC2(C[C@H]1C(=O)OCOC(=O)C(C)(C)C)SCCS2` registered a melting point of 79.5 to 81 °C.

With `COc1ccc(C2(C)C(=O)c3c(Cl)cc(Cl)cc3N(Cc3ccccc3)C2=O)cc1` (stereo not drawn), the melting point lay in the range of 159 to 160 °C.

Compound `CCCCCCCCCCCCCCCCCCNC(=O)c1cc(OC(C)=O)cc(OC(C)=O)c1` showed a melting point of 99 to 101 °C.

The compound `COc1ccc2nscc2c1` had a melting point of 51 to 55 °C.

`Cc1ncncc1C(=O)Nc1cc(F)c(-n2nc(C(F)(F)F)cc2C2CC2)c(F)c1` had a melting point of 147 to 150 °C.

In the case of `CN1CCN(c2nnc3c4ccccc4c(Cl)cn23)CC1`, the melting point lay in the range of 150 to 153 °C.

In turn, `CC1CCC(=NNc2ccccc2)c2ncc(CC(=O)O)c(=O)n21` (stereo not drawn) yielded a melting point of 160 to 162 °C.

In the case of `Clc1cc(CBr)c2noc(-c3ccccc3)c2c1`, the melting point lay within 142 to 144 °C.

For the compound `O=C1NC(O)C2=C1c1ccc(Cl)cc1C(c1ccccc1Cl)=NC2` (stereo not drawn), the melting point is 221 to 222 °C.

Take `COc1cc2c(c(Cl)c1Cl)C(=O)C(C)(c1ccc([N+](=O)[O-])cc1)C2` (stereo not drawn): the melting point fell in the range of 179 to 180 °C.

Compound `CCOC(=O)C(C)c1ccc(CC2CCCCC2=NO)cc1` (stereo not drawn) registered a melting point of 102 to 104 °C.

As for `COC=C1C(=O)NC(=O)c2ccccc21`, the melting point lay in the range of 260 to 261 °C.

`O=C(O)Cc1c(C(=O)c2ccc(-c3cccs3)cc2)[nH]c2cc(Cl)ccc12` came in with a melting point of 246 to 249 °C.

In the case of `N#CCc1nc(C(=O)c2ccc(Cl)cc2)no1`, the melting point fell in the range of 81 to 84 °C.

The compound `COc1cc(N2CCC(N3CCN(C)CC3)CC2)ccc1-c1nc2c(N[C@H]3[C@@H](C(N)=O)[C@@H]4C=C[C@H]3C4)ccnc2[nH]1` came in with a melting point of 185 to 195 °C.

As for `OC(CNC1=NCCN1)c1ccc(Cl)cc1` (stereo not drawn), the melting point lay within 156 to 158 °C.

Compound `N#Cc1nc2cccc(O)c2s1` gave a melting point of 225 °C.

Consider `CC1=NN(C)c2nc(C)c(CCO)c(=O)n2C1`, for which the melting point was 140 °C.

Regarding `CCCCCCCCCCCCc1c[nH]c(C(=O)O)c1`, the melting point fell in the range of 152 to 153 °C.

Compound `CN(Cc1ccc(NC(=O)C2=Cc3cc(-c4ccc5c(c4)OCCCO5)ccc3S(=O)(=O)CC2)cc1)C1CCOCC1` registered a melting point of 242 to 245 °C.

The compound `O=C(CN1CCC(Cc2ccc(F)cc2)CC1)Nc1ccc2c(c1)CC(=O)N2` came in with a melting point of 178 to 180 °C.

In turn, `CCOC(=O)N1CCC(Nc2nc3ccccc3[nH]2)CC1` gave a melting point of 231 to 233 °C.

In the case of `Cc1cc(-c2cc(C(F)(F)F)n3ncc(C(=O)Nc4cccc(S(=O)(=O)NC5CC5)c4)c3n2)ccc1Cl`, the melting point came to 244 °C.

Consider `COc1cc2c(c3c1OC(C)(C)C3)C(c1cccc(C(=O)NCC(N)=O)c1)=NC(C)(C)C2`, for which the melting point was 141 to 142 °C.

`COC(=O)C1=C(C)Nc2nc(N3CCOCC3)nc(N3CCOCC3)c2C1c1ccc([N+](=O)[O-])cc1` (stereo not drawn): the melting point worked out at 236 °C.

As for `C=Cc1cnc2c(NC(=O)c3c(Cl)cccc3Cl)cccc2c1CCO`, the melting point was in the range of 133 to 135 °C.

Compound `O=C(O)CCOc1cccc2c1CCc1sc(SCC(c3ccccc3)c3ccccc3)nc1-2` displayed a melting point of 123 to 125 °C.

In turn, `Cc1ccc(NCc2c(F)c(F)c(C(F)(F)F)c(F)c2F)cc1C(=O)O` yielded a melting point of 84 °C.

In turn, `COc1ccc2c(c1)Sc1ccccc1C(=S)N2` came in with a melting point of 239 to 241 °C.

As to `CCCn1nc2c(Cl)nc3ccccc3c2c1C`, the melting point fell in the range of 145 to 147 °C.

The compound `O=C1SC[C@@H](CO)N1Cc1ccccc1` had a melting point of 87 to 90 °C.

With `CC(C)(C)OC(=O)N1C[C@H](Oc2nccc(NC(=O)c3ccccc3)n2)C[C@@H]1C(=O)OC(c1ccccc1)c1ccccc1`, the melting point was in the range of 145 to 147 °C.

The compound `O=[N+]([O-])C=Cc1cn(-c2ccccc2)c2ccccc12` registered a melting point of 154 to 155 °C.

For `COC(=O)CCCCCCCC(=O)Nc1c(I)c(C(=O)O)c(I)c(N(C)C(C)=O)c1I`, the melting point was in the range of 198 to 203 °C.

As for `NS(=O)(=O)c1ccc(-c2cccc(-c3nc(-c4ccc(Cl)cc4Cl)cc(C(F)(F)F)n3)c2)s1`, the melting point was found to be 238 °C.

`CCC1C(=O)c2cc(OCC(=O)O)c(C)c(C)c2C1=O` (stereo not drawn): the melting point was 187 to 193 °C.

Regarding `COc1ccc(C(C#N)Sc2ccccn2)cc1OC` (stereo not drawn), the melting point was in the range of 108 to 110 °C.

Regarding `COc1cc2ncnc(N3CCC(C(C)CN4CCCS4(=O)=O)C(O)C3)c2cc1OC` (stereo not drawn), the melting point lay within 173 to 174 °C.

In turn, `COC(=O)C(c1ccc(O)cc1)N1CC(N2C(=O)c3ccccc3C2=O)C1=O` (stereo not drawn) gave a melting point of 203 to 204 °C.

For `COc1cc2c(cc1OC)Sc1ccc(Cl)cc1C(Cl)C2` (stereo not drawn), the melting point was in the range of 139 to 141 °C.

For the compound `COc1ccc(OC)c(OCCCCl)c1`, the melting point lay in the range of 48 to 50 °C.

As to `CC(=O)OCC1OC(n2nnnc2Cl)C(OC(C)=O)C(OC(C)=O)C1OC(C)=O` (stereo not drawn), the melting point was found to be 172 °C.

`COc1ccc2cc3[nH]cc(C#N)c(=O)c3cc2c1` came in with a melting point above 260 °C.

`CCOC(=O)c1c(OC(=O)C=C(C)C)c(CC)c(C)[nH]c1=O` returned a melting point of 166 °C.

The compound `CN1CCCN(C(=O)Nc2ccccc2Cc2ncc[nH]2)CC1` yielded a melting point of 139 to 143 °C.

Regarding `N#Cc1ccc(OCCCCCCOc2ccc(-c3cc4ccc(C#N)cc4o3)cc2)cc1`, the melting point lay within 159 to 160 °C.

For the compound `FC(F)(F)CNC(=S)Nc1cncc(Cl)n1`, the melting point was 170 to 172 °C.

Take `NC(CC(=O)NC1CC1)C1CC1` (stereo not drawn): the melting point is 116 to 118 °C.

Regarding `Cc1c(C)c2c(c(C)c1N)CC(C)(CN1C(=O)c3ccccc3C1=O)O2` (stereo not drawn), the melting point was in the range of 147 to 150 °C.

Consider `COC(=O)CCc1nc(C=O)ccc1OCCCC/C=C/c1ccc(OC)cc1`, for which the melting point lay within 66 to 69 °C.

As to `O=C(Nc1c(Cl)cc(C(F)(c2cccs2)C(F)(F)F)cc1Cl)c1cccc(NC(=O)c2c(F)cc(F)cc2F)c1F` (stereo not drawn), the melting point is 190 to 193 °C.

Compound `CN1C(CCCCCBr)Nc2cc(Cl)c(S(=O)(=O)NCc3ccccc3)cc2S1(=O)=O` (stereo not drawn) showed a melting point of 141 to 142 °C.

For `COC(=O)C1(O)CC(O[Si](C)(C)C(C)(C)C)C(O)C(O[Si](C)(C)C(C)(C)C)C1` (stereo not drawn), the melting point lay in the range of 82 to 82.5 °C.
